Laboratory results reported in US11753407B2, “Compounds for treating spinal muscular atrophy” (PTC Therapeutics, Inc., priority 2012, dated 2023).

What was measured:
[1] = test system: Smn protein in SMA patient fibroblast cells (GM03813); test: Smn protein assay in cultured cells (SMN HTRF); format: cell-based, human; conditions: SMA patient fibroblast cells, 48 hours; for EC1.5x for Smn protein expression: 7-point concentration curve, SMN HTRF, concentration producing 1.5 times Smn protein vs DMSO vehicle control; for maximum fold (Fold) increase of Smn protein: 7-point concentration data, fold relative to vehicle control
Outline: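 Cells were cultured 72 h, seeded at 5,000/well and dosed with seven concentrations (3.16-fold apart) for 48 h. HTRF on lysates, read at 665 and 620 nm, gave blank-corrected ΔF values relative to DMSO. Potency is reported as EC1.5×, efficacy as maximal fold Smn increase.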

[2] = test system: SMN2 minigene mRNA (SMN2-A minigene) in HEK293H cells; test: SMN2 minigene mRNA splicing RT-qPCR assay in cultured cells; format: cell-based, human; conditions: Homo sapiens, HEK293-H; concentration increasing full length SMN2 mRNA 1.5-fold relative to vehicle-treated cells; HEK293H cells with SMN2-A minigene, 24 hours, 7-point concentration data; read-out: EC1.5x for production of full length SMN2 mRNA
Outline: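 EC1.5× values derive from a 24 h treatment of SMN2-A minigene HEK293H cells and GAPDH-normalized RT-qPCR of exon 7-included minigene mRNA relative to vehicle-treated cells.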

SMILES | EC1.5x for Smn protein expression [1] | maximum fold (Fold) increase of Smn protein [1] | EC (1.5-fold increase) [2] [µM] | melting point
O=c1cc(-c2cccc(C(F)(F)F)c2)nc2ccc(N3CCNCC3)cn12 [Compound 43, 7-(piperazin-1-yl)-2-[3-(trifluoromethyl)phenyl]-4H-pyrido[1,2-a]pyrimidin-4-one] | ** (an EC1.5× between >1 μM and ≤3 μM is indicated by two stars (**)) | *** (a fold increase between >1.35 and ≤1.5 is indicated by three stars (***)) | 0.1 to 0.3 | 199 to 207 °C
O=c1cc(-c2ccc(C(F)(F)F)cc2)nc2ccc(N3CCNCC3)cn12 [Compound 44, 7-(piperazin-1-yl)-2-[4-(trifluoromethyl)phenyl]-4H-pyrido[1,2-a]pyrimidin-4-one] | – | * (A maximum fold increase of ≤1.2 is indicated by one star (*)) | 1 to 3 | 285 °C (dec.)
Cc1cccc(-c2cc(=O)n3cc(N4CCNCC4)ccc3n2)c1 [Compound 45, 2-(3-methylphenyl)-7-(piperazin-1-yl)-4H-pyrido[1,2-a]pyrimidin-4-one] | – | ** (a fold increase between >1.2 and ≤1.35 is indicated by two stars (**)) | 3 to 30 | 183 to 187 °C
O=c1cc(-c2ccc(F)cc2)nc2ccc(N3CCNCC3)cn12 [Compound 46, 2-(4-fluorophenyl)-7-(piperazin-1-yl)-4H-pyrido[1,2-a]pyrimidin-4-one] | – | *** (a fold increase between >1.35 and ≤1.5 is indicated by three stars (***)) | 1 to 3 | 214 to 218 °C
O=c1cc(-c2ccc([N+](=O)[O-])cc2)nc2ccc(N3CCNCC3)cn12 [Compound 47, 2-(4-nitrophenyl)-7-(piperazin-1-yl)-4H-pyrido[1,2-a]pyrimidin-4-one] | – | *** (a fold increase between >1.35 and ≤1.5 is indicated by three stars (***)) | 1 to 3 | 237 to 242 °C
COc1ccc(-c2cc(=O)n3cc(NC4CCNCC4)cc(F)c3n2)cc1OC [Compound 48, 2-(3,4-dimethoxyphenyl)-9-fluoro-7-(piperidin-4-ylamino)-4H-pyrido[1,2-a]pyrimidin-4-one] | – | * (A maximum fold increase of ≤1.2 is indicated by one star (*)) | 3 to 30 | 224 to 226 °C
CN(C)c1ccc(-c2cc(=O)n3cc(N4CCNCC4)cc(F)c3n2)cc1 [Compound 49, 2-[4-(dimethylamino)phenyl]-9-fluoro-7-(piperazin-1-yl)-4H-pyrido[1,2-a]pyrimidin-4-one] | – | * (A maximum fold increase of ≤1.2 is indicated by one star (*)) | 3 to 30 | 216 to 218 °C
C[C@@H]1CN(c2cc(F)c3nc(-c4ccc(N(C)C)cc4)cc(=O)n3c2)CCN1 [Compound 50, 2-[4-(dimethylamino)phenyl]-9-fluoro-7-[(3R)-3-methylpiperazin-1-yl]-4H-pyrido[1,2-a]pyrimidin-4-one] | – | ** (a fold increase between >1.2 and ≤1.35 is indicated by two stars (**)) | 3 to 30 | 205 to 207 °C
O=c1cc(-c2ccccc2F)nc2ccc(N3CCNCC3)cn12 [Compound 51, 2-(2-fluorophenyl)-7-(piperazin-1-yl)-4H-pyrido[1,2-a]pyrimidin-4-one] | – | ** (a fold increase between >1.2 and ≤1.35 is indicated by two stars (**)) | 3 to 30 | 142 to 146 °C
CN(C)c1ccc(-c2cc(=O)n3cc(N4CCNCC4)ccc3n2)cc1 [Compound 53, 2-[4-(dimethylamino)phenyl]-7-(piperazin-1-yl)-4H-pyrido[1,2-a]pyrimidin-4-one] | – | * (A maximum fold increase of ≤1.2 is indicated by one star (*)) | 1 to 3 | 211 to 215 °C
C[C@H]1CN(c2ccc3nc(-c4ccc(N(C)C)cc4)cc(=O)n3c2)CCN1 [Compound 54, 2-[4-(dimethylamino)phenyl]-7-[(3S)-3-methylpiperazin-1-yl]-4H-pyrido[1,2-a]pyrimidin-4-one] | – | * (A maximum fold increase of ≤1.2 is indicated by one star (*)) | 1 to 3 | 199 to 202 °C
Cc1ccc(-c2cc(=O)n3cc(N4CCNCC4)ccc3n2)cc1C [Compound 55, 2-(3,4-dimethylphenyl)-7-(piperazin-1-yl)-4H-pyrido[1,2-a]pyrimidin-4-one] | – | * (A maximum fold increase of ≤1.2 is indicated by one star (*)) | 1 to 3 | 186 to 188 °C
Cc1ccc(-c2cc(=O)n3cc(N4CCN[C@@H](C)C4)ccc3n2)cc1C [Compound 56, 2-(3,4-dimethylphenyl)-7-[(3S)-3-methylpiperazin-1-yl]-4H-pyrido[1,2-a]pyrimidin-4-one] | – | * (A maximum fold increase of ≤1.2 is indicated by one star (*)) | 1 to 3 | 207 to 209 °C
CN(C)c1cccc(-c2cc(=O)n3cc(N4CCNCC4)ccc3n2)c1 [Compound 57, 2-[3-(dimethylamino)phenyl]-7-(piperazin-1-yl)-4H-pyrido[1,2-a]pyrimidin-4-one] | – | * (A maximum fold increase of ≤1.2 is indicated by one star (*)) | 3 to 30 | 178 to 180 °C
C[C@H]1CN(c2ccc3nc(-c4cccc(N(C)C)c4)cc(=O)n3c2)CCN1 [Compound 58, 2-[3-(dimethylamino)phenyl]-7-[(3S)-3-methylpiperazin-1-yl]-4H-pyrido[1,2-a]pyrimidin-4-one] | – | * (A maximum fold increase of ≤1.2 is indicated by one star (*)) | 3 to 30 | 144 to 146 °C
O=c1cc(-c2ccc(OC(F)F)cc2)nc2ccc(N3CCNCC3)cn12 [Compound 59, 2-[4-(difluoromethoxy)phenyl]-7-(piperazin-1-yl)-4H-pyrido[1,2-a]pyrimidin-4-one] | – | * (A maximum fold increase of ≤1.2 is indicated by one star (*)) | 1 to 3 | 131 to 133 °C
C[C@H]1CN(c2ccc3nc(-c4ccc(OC(F)F)cc4)cc(=O)n3c2)CCN1 [Compound 60, 2-[4-(difluoromethoxy)phenyl]-7-[(3S)-3-methylpiperazin-1-yl]-4H-pyrido[1,2-a]pyrimidin-4-one] | – | * (A maximum fold increase of ≤1.2 is indicated by one star (*)) | 1 to 3 | 166 to 168 °C
O=c1cc(-c2cccc(F)c2)nc2ccc(N3CCNCC3)cn12 [Compound 61, 2-(3-fluorophenyl)-7-(piperazin-1-yl)-4H-pyrido[1,2-a]pyrimidin-4-one] | *** (an EC1.5× between >0.3 μM and ≤1 μM is indicated by three stars (***)) | **** (a fold increase between >1.5 and ≤1.65 is indicated by four stars (****)) | 0.3 to 1 | 153 to 156 °C
O=c1cc(-c2cccc([N+](=O)[O-])c2)nc2ccc(N3CCNCC3)cn12 [Compound 62, 2-(3-nitrophenyl)-7-(piperazin-1-yl)-4H-pyrido[1,2-a]pyrimidin-4-one] | *** (an EC1.5× between >0.3 μM and ≤1 μM is indicated by three stars (***)) | ***** (a fold increase >1.65 is indicated by five stars (*****)) | 0.1 to 0.3 | 175 °C (dec.)
Cc1ccc(-c2cc(=O)n3cc(N4CCNCC4)ccc3n2)cc1 [Compound 63, 2-(4-methylphenyl)-7-(piperazin-1-yl)-4H-pyrido[1,2-a]pyrimidin-4-one] | – | ** (a fold increase between >1.2 and ≤1.35 is indicated by two stars (**)) | 1 to 3 | 192 to 195 °C
COc1cc(F)c(-c2cc(=O)n3cc(N4CCNCC4)ccc3n2)cc1OC [Compound 64, 2-(2-fluoro-4,5-dimethoxyphenyl)-7-(piperazin-1-yl)-4H-pyrido[1,2-a]pyrimidin-4-one] | – | ** (a fold increase between >1.2 and ≤1.35 is indicated by two stars (**)) | 3 to 30 | 177 to 180 °C
COc1cc(F)c(-c2cc(=O)n3cc(N4CCN[C@@H](C)C4)ccc3n2)cc1OC [Compound 65, 2-(2-fluoro-4,5-dimethoxyphenyl)-7-[(3S)-3-methylpiperazin-1-yl]-4H-pyrido[1,2-a]pyrimidin-4-one] | – | ** (a fold increase between >1.2 and ≤1.35 is indicated by two stars (**)) | 3 to 30 | 167 to 170 °C
COc1ccc(-c2cc(=O)n3cc(N4CC5CCC(C4)N5)ccc3n2)cc1OC [Compound 66, 7-(3,8-diazabicyclo[3.2.1]oct-3-yl)-2-(3,4-dimethoxyphenyl)-4H-pyrido[1,2-a]pyrimidin-4-one] | * (An EC1.5× for Smn protein expression between >3 μM and ≤10 μM is indicated by one star (*)) | *** (a fold increase between >1.35 and ≤1.5 is indicated by three stars (***)) | 0.3 to 1 | 158 to 161 °C
